The values below come from patent publication US7393952B2, “Solvent free amorphous rapamycin” (Cordis Corporation, priority 2004, dated 2008).

The data set can be described thus: differential scanning calorimetry (DSC) of amorphous sirolimus. The data set is classed as physicochemical. The settings on record: DSC curve for this sample (FIG. 6); about 3 mg, heating rate 2° C./min, -40 to 200° C., nitrogen flow. The method, then: In another test, the amorphous sirolimus is analyzed utilizing differential scanning calorimetry (DSC). Essentially, the purpose of this test is to determine the glass transition temperature of the amorphous sirolimus. In this test, approximately 3 mg of amorphous sirolimus is transferred into a standard aluminum TA-Instrument sample pan and covered. The DSC curve is recorded on a TA-Instruments Q1000 MTDSC equipped with a RCS cooling unit. FIG. 6 illustrates a differential scanning calorimetry (DSC) curve of amorphous sirolimus. […] Based on a number of scans, the glass transition temperatures may be in the range from about 92 degrees C. to about 95 degrees C.
In general terms: Differential scanning calorimetry records heat flow against a reference as temperature is scanned.

For `CO[C@H]1C[C@@H]2CC[C@@H](C)[C@@](O)(O2)C(=O)C(=O)N2CCCC[C@H]2C(=O)O[C@H]([C@H](C)C[C@@H]2CC[C@@H](O)[C@H](OC)C2)CC(=O)[C@H](C)/C=C(\C)[C@@H](O)[C@@H](OC)C(=O)[C@H](C)C[C@H](C)/C=C/C=C/C=C/1C` [amorphous sirolimus, sirolimus (rapamycin)], the glass transition temperature result is reported as “about 93 degrees C”.
